# Results from article PMC4766710 (BMC Cancer, 2016).
# Like-named read-outs stand apart in the source and are kept apart here.
# What was measured:
# [1] = in vivo, 75 mg
# [2] = ABC-04 phase Ib trial: dose limiting toxicity, adverse events, compliance; type: in vivo, patients
# Protocol: Four dose levels were included in the protocol for potential evaluation; 75 mg bd, 50 mg bd, 75 mg once daily (od) and 50 mg od. The first dose level evaluated was 75 mg bd. Patients were recruited in cohorts of three. The number of patients experiencing a DLT during the first cycle of treatment in each cohort was used to decide the dose level at which to recruit the next cohort. If no patients experienced a DLT, then that dose level was the recommended dose. If one patient experienced a DLT, the cohort was to be expanded to six patients. If > 2 patients experienced DLT, then subsequent patients were to be entered into the next lower dose level. […]
# Patients were assessed prior to starting treatment and at regular intervals throughout treatment. […] All AEs occurring between the date of signing consent and 30 days after the last dose of any trial treatment were recorded. […] Disease status was assessed by computed tomography (CT) scan, with or without a liver magnetic resonance (MR) scan, prior to registration, after cycles 4 and 8 and then subsequently every 12 weeks until disease progression. Patients with measurable disease at baseline were assessed for objective response according to RECIST v1.1 [10]. For patients with non-measurable disease, objective response was not assessed and progressive disease was documented by the appearance of new lesions or by symptomatic deterioration. […]
# [3] = test system: advanced biliary tract cancer; assay: ABC-04 phase Ib trial: objective response (RECIST v1.1), PFS, deaths; type: in vivo, patients; conditions: 75 mg bd + CisGem
# Protocol: Patients were assessed prior to starting treatment and at regular intervals throughout treatment. […] All AEs occurring between the date of signing consent and 30 days after the last dose of any trial treatment were recorded. AEs were graded according to CTCAE v 4.03. Blood biochemistry and a full blood count with differential were carried out at the same time points as the physical examinations. […] In addition, prior to registration, an electrocardiogram and echocardiogram, and an ophthalmological examination were required. Disease status was assessed by computed tomography (CT) scan, with or without a liver magnetic resonance (MR) scan, prior to registration, after cycles 4 and 8 and then subsequently every 12 weeks until disease progression. Patients with measurable disease at baseline were assessed for objective response according to RECIST v1.1 [10]. For patients with non-measurable disease, objective response was not assessed and progressive disease was documented by the appearance of new lesions or by symptomatic deterioration.
# Tumour responses were assessed according to RECIST version 1.1. The best response across all time points has been reported. For PFS and OS, the time to progression or death was measured from the date of registration. PFS and OS were estimated for the population by the Kaplan-Meier method.
# ABC = conditions: monotherapy 100 mg bd, older formulation; 29 patients with ABC; cited from earlier work
# clinical = conditions: human, in vivo, 75 mg
# [4] = RECIST v1.1, listed as selumetinib
structure (smiles),measurement,setting,value
O=C(NOCCO)c1cc2nc[nH]c2c(F)c1Nc1ccc(Br)cc1Cl [N-desmethyl selumetinib],AUC(0-t),[1]; human,0.34726 µg·h/mL
same,Cmax,[1]; human,0.07716 µg/mL
same,Tmax,[1]; human,2.00 h
same,decrease of AUC(0-t) in the presence of CisGem,[1]; human,40%
same,decrease of AUC(0-∞) in the presence of CisGem,[1]; human,40%
same,decrease of Cmax in the presence of CisGem,[1]; human,40%
same,AUC(0-∞),[1],0.45288 µg·h/mL
Cn1cnc2c(F)c(Nc3ccc(Br)cc3Cl)c(C(=O)NOCCO)cc21 [Selumetinib],deaths considered related to protocol treatment,[2]; 75 mg bd + CisGem,None
same,recommended dose of selumetinib when combined with CisGem,"[2]; dose de-escalation scheme, patients with ABC",75 mg bd
same,Median time from documented best objective response until progression or death,[3],5.9 months
same,"median time from documented best objective response until progression or death, best response SD",[3],3.1 months
same,median PFS,[3]; IQR 5.2 to 13.7,6.4 months
same,PFS rate at 6 months,[3]; Kaplan-Meier,67%
same,PFS rate at 12 months,[3]; Kaplan-Meier,33%
same,Best objective response: Complete response,[3]; RECIST v1.1,1 N
same,Best objective response: Partial response,[3]; RECIST v1.1,1 N
same,Best objective response: Stable disease,[3]; RECIST v1.1,6 N
same,Best objective response: Partial response,[3]; [4],3 N
same,Best objective response: Stable disease,[3]; [4],5 N
same,Best objective response: Not evaluable,"[3]; RECIST v1.1, total 13",5 N
same,patients who had died,[3]; at the time of the final analysis,7 patients
same,Cmax,[1]; human,1.33133 µg/mL
same,response rate,ABC,12%
same,AUC(0-inf),clinical,5.65 µg·h/mL
same,Tmax,clinical,1.55 h
